Consider 19 compounds from PubChem BioAssay AID192 (DTP/NCI, 2004).

The experiment concerns BDF1 mice, B16 melanoma ip, median survival T/C. Description: NCI In Vivo Anticancer Drug Screen. Data for tumor model B16 Melanoma (intraperitoneal) in B6D2F1 (BDF1) mice. To be noted: endpoint: median survival time, higher = longer survival. The gist of the method: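 Each result divides a survival or tumor-size measurement in the compound-treated group by the same measurement in the vehicle group.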

Setting [1] is: dose: 12.5 mg/kg/injection, schedule: Q01DX009 (ip), vehicle: saline with Tween-80.
[2] abbreviates: dose: 12.5 mg/kg/injection, schedule: Q01DX009 (ip), vehicle: saline.
[3] abbreviates: dose: 25.0 mg/kg/injection, schedule: Q01DX009 (ip), vehicle: saline.
Where [4] appears, read: dose: 50.0 mg/kg/injection, schedule: Q01DX009 (ip), vehicle: saline.
The mark [5] stands for this setting: dose: 100.0 mg/kg/injection, schedule: Q01DX009 (ip), vehicle: Klucel (hydroxypropylcellulose) (HPC).
[6] abbreviates: dose: 200.0 mg/kg/injection, schedule: Q01DX009 (ip), vehicle: Klucel (hydroxypropylcellulose) (HPC).
Setting [7] is: dose: 400.0 mg/kg/injection, schedule: Q01DX009 (ip), vehicle: Klucel (hydroxypropylcellulose) (HPC).
Setting [8] is: dose: 100.0 mg/kg/injection, schedule: Q01DX009 (ip), vehicle: saline.
Where [9] appears, read: dose: 200.0 mg/kg/injection, schedule: Q01DX009 (ip), vehicle: saline.
Setting [10] is: dose: 0.5 mg/kg/injection, schedule: Q01DX009 (ip), vehicle: saline.
Setting [11] is: dose: 0.75 mg/kg/injection, schedule: Q01DX009 (ip), vehicle: saline.
The mark [12] stands for this setting: dose: 1.0 mg/kg/injection, schedule: Q01DX009 (ip), vehicle: saline.
The mark [13] stands for this setting: dose: 1.5 mg/kg/injection, schedule: Q01DX009 (ip), vehicle: saline.
[14] abbreviates: dose: 2.0 mg/kg/injection, schedule: Q01DX009 (ip), vehicle: saline.
Setting [15] is: dose: 3.0 mg/kg/injection, schedule: Q01DX009 (ip), vehicle: saline.
[16] abbreviates: dose: 100.0 mg/kg/injection, schedule: Q04DX003 (ip), vehicle: saline.
Setting [17] is: dose: 200.0 mg/kg/injection, schedule: Q04DX003 (ip), vehicle: saline.
[18] abbreviates: dose: 400.0 mg/kg/injection, schedule: Q01DX009 (ip), vehicle: saline.
Where [19] appears, read: dose: 400.0 mg/kg/injection, schedule: Q04DX003 (ip), vehicle: saline.
Setting [20] is: dose: 25.0 mg/kg/injection, schedule: Q01DX009 (ip), vehicle: Klucel (hydroxypropylcellulose) (HPC).
The mark [21] stands for this setting: dose: 200.0 mg/kg/injection, schedule: Q04DX003 (ip), vehicle: Klucel (hydroxypropylcellulose) (HPC).

Values joined by “and” are separate entries in the source; they are usually repeats but may differ in a detail not shown here. Identical values can stand only once. Inconclusive results and toxic doses are left out. Square brackets hold non-standard residues; d marks the D form. Peptide text beside a SMILES is read from it. ξ: configuration not given here. ξF = NC(Cc1ccccc1)C(=O)O

On to `O=C(Nc1ccc([N+](=O)[O-])cc1)Nc1ccc([N+](=O)[O-])c(C(F)(F)F)c1`, for which the T/C reads like this: (dose: 6.25 mg/kg/injection, schedule: Q01DX009 (ip), vehicle: saline with Tween-80) 100 % of control; under setting [1], 100 % of control; (dose: 25.0 mg/kg/injection, schedule: Q01DX009 (ip), vehicle: saline with Tween-80) 90 % of control.
As to `Nc1n[n+](-c2ccc(Cl)cc2)no1`, the T/C reads like this: (dose: 3.12 mg/kg/injection, schedule: Q01DX009 (ip), vehicle: water) 102 % of control; (dose: 6.25 mg/kg/injection, schedule: Q01DX009 (ip), vehicle: water) 107 % of control; (dose: 12.5 mg/kg/injection, schedule: Q01DX009 (ip), vehicle: water) 109 % of control; (dose: 50.0 mg/kg/injection, schedule: Q01DX009 (ip), vehicle: water) 117 % of control.
On to `O=P1(NCCCl)OCCCN1CCCl` (stereo not drawn), for which the T/C is, setting by setting: under setting [2], 109 % of control; under setting [3], 103 % of control and 111 % of control and 119 % of control; (dose: 25.0 mg/kg/injection, schedule: Q01DX009 (ip), vehicle: water) 104 % of control and 121 % of control; (dose: 25.0 mg/kg/injection, schedule: Q02DX009 (ip), vehicle: saline) 100 % of control and 107 % of control; (dose: 25.0 mg/kg/injection, schedule: Q02DX009 (ip), vehicle: water) 114 % of control; under setting [4], 90 % of control and 111 % of control and 116 % of control. Further, the T/C is, setting by setting: (dose: 50.0 mg/kg/injection, schedule: Q02DX009 (ip), vehicle: water) 124 % of control; (dose: 100.0 mg/kg/injection, schedule: Q01DX009 (ip), vehicle: water) 169 % of control; (dose: 200.0 mg/kg/injection, schedule: Q02DX009 (ip), vehicle: water) 122 % of control.
For the compound `Clc1ccc(C=Nc2ccc3c(c2)Cc2ccccc2-3)cc1`, the T/C reads like this: under setting [5], 93 % of control; under setting [6], 93 % of control; under setting [7], 96 % of control.
For the compound `OCC1OC(n2cnc3c(SCc4ccccc4)ncnc32)C(O)C1O` (stereo not drawn), the T/C (dose: 37.5 mg/kg/injection, schedule: Q01DX009 (ip), vehicle: saline with Tween-80) is 121 % of control.
Turning to `CCOc1cc[n+]([O-])cc1`, the T/C reads like this: under setting [4], 103 % of control; under setting [8], 104 % of control; under setting [9], 102 % of control.
For the compound `CN1C(=O)CCS(=O)(=O)C1c1ccc(Cl)cc1` (stereo not drawn), the T/C by setting is: (dose: 0.13 mg/kg/injection, schedule: Q01DX009 (ip), vehicle: saline) 109 % of control; (dose: 0.25 mg/kg/injection, schedule: Q01DX009 (ip), vehicle: saline) 101 % of control; (dose: 0.38 mg/kg/injection, schedule: Q01DX009 (ip), vehicle: saline) 95 % of control; (dose: 0.39 mg/kg/injection, schedule: Q01DX009 (ip), vehicle: Klucel (hydroxypropylcellulose) (HPC)) 100 % of control; under setting [10], 111 % of control; under setting [11], 98 % of control. Besides, the T/C under setting [12] was 115 % of control; the T/C under setting [13] is 101 % of control; the T/C (dose: 1.56 mg/kg/injection, schedule: Q01DX009 (ip), vehicle: Klucel (hydroxypropylcellulose) (HPC)) was 109 % of control; the T/C under setting [14] is 104 % of control; the T/C under setting [15] is 104 % of control; the T/C (dose: 3.12 mg/kg/injection, schedule: Q01DX009 (ip), vehicle: Klucel (hydroxypropylcellulose) (HPC)) is 100 % of control. Moreover, the T/C (dose: 6.25 mg/kg/injection, schedule: Q01DX009 (ip), vehicle: Klucel (hydroxypropylcellulose) (HPC)) is 102 % of control.
For the compound `O=C(CC(CC(=O)c1ccccc1)c1ccco1)c1ccccc1`, the T/C reads like this: under setting [5], 93 % of control; under setting [6], 93 % of control; under setting [7], 93 % of control.
`C(=N/NC1=NCCN1)/c1c2ccccc2c(/C=N\NC2=NCCN2)c2ccccc12`: the T/C is, setting by setting: (dose: 0.78 mg/kg/injection, schedule: Q01DX009 (ip), vehicle: saline) 156 % of control; (dose: 1.56 mg/kg/injection, schedule: Q01DX009 (ip), vehicle: saline) 181 % of control; (dose: 3.12 mg/kg/injection, schedule: Q01DX009 (ip), vehicle: saline) 205 % of control; (dose: 6.25 mg/kg/injection, schedule: Q01DX009 (ip), vehicle: saline) 225 % of control; under setting [2], 294 % of control.
For the compound `NCC(=O)NC(CO)C(=O)O` (stereo not drawn), the T/C is 90 % of control under setting [8]; 100 % of control under setting [16]; 106 % of control under setting [9]; 102 % of control under setting [17]; 95 % of control under setting [18]; 95 % of control under setting [19].
`COc1cc2c(cc1O)N=C[C@@H]1CCC(O)N1C2=O` (mixture of isomers): the T/C under setting [10] was 99 % of control; the T/C under setting [12] was 99 % of control; the T/C under setting [14] was 98 % of control; the T/C (dose: 4.0 mg/kg/injection, schedule: Q01DX009 (ip), vehicle: saline) is 101 % of control and 119 % of control.
For `COc1cc(C=Nc2ccc(-c3nc(Cc4ccccc4)sc3C)cc2)ccc1N(CCCl)CCCl`, the T/C (dose: 12.5 mg/kg/injection, schedule: Q01DX009 (ip), vehicle: Klucel (hydroxypropylcellulose) (HPC)) is 175 % of control and 186 % of control; the T/C under setting [20] is 191 % of control.
For `CC1=CC(=O)[C@@H](O)[C@]2(C)[C@H]3[C@@]4(O)OC[C@]35[C@H]([C@@H](C)[C@H]4O)[C@@H](O)C(=O)O[C@@H]5C[C@@H]12`, the T/C runs as follows: under setting [11], 107 % of control; under setting [13], 109 % of control; under setting [15], 117 % of control; (dose: 6.0 mg/kg/injection, schedule: Q01DX009 (ip), vehicle: saline) 108 % of control.
Take `C=CCOc1ccccc1Cl`: the T/C is, setting by setting: (dose: 50.0 mg/kg/injection, schedule: Q04DX003 (ip), vehicle: Klucel (hydroxypropylcellulose) (HPC)) 122 % of control; under setting [5], 100 % of control; under setting [6], 107 % of control; under setting [21], 119 % of control; under setting [7], 97 % of control.
In the case of `NCC(=O)NCC(=O)NC(Cc1ccccc1)C(=O)O` (stereo not drawn) (H-Gly-Gly-[ξF]-OH), the T/C reads like this: under setting [8], 90 % of control; under setting [16], 92 % of control; under setting [9], 90 % of control; under setting [17], 97 % of control; under setting [18], 93 % of control; under setting [19], 90 % of control.
Consider `CCC(CC)COC(=O)c1ccccc1C(=O)OCC(CC)CC`, for which the T/C under setting [1] was 87 % of control.
`Cc1cc(NS(=O)(=O)c2ccc(N)cc2)no1`: the T/C is 97 % of control (dose: 100.0 mg/kg/injection, schedule: Q04DX003 (ip), vehicle: Klucel (hydroxypropylcellulose) (HPC)); 97 % of control under setting [21]; 93 % of control (dose: 400.0 mg/kg/injection, schedule: Q04DX003 (ip), vehicle: Klucel (hydroxypropylcellulose) (HPC)).
Take `CN(C)N=Nc1ccc(S(N)(=O)=O)cc1`: the T/C reads like this: under setting [20], 116 % of control; (dose: 50.0 mg/kg/injection, schedule: Q01DX009 (ip), vehicle: Klucel (hydroxypropylcellulose) (HPC)) 111 % of control; under setting [5], 98 % of control.
Take `CC1CNC(=S)O1` (stereo not drawn): the T/C under setting [3] is 97 % of control; the T/C under setting [4] is 91 % of control; the T/C under setting [8] is 91 % of control; the T/C under setting [9] was 89 % of control; the T/C under setting [18] was 91 % of control.
